# Source: PubChem BioAssay (NCI)
# “And” between values parts separate entries of the source, which are not always exact repeats. Equal entries are not always repeated.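 Growth conditions: 96-well plates. Treatment: test compound, 48 hours, 5 concentrations. Analysis: linear interpolation between bracketing concentrations; unreached endpoints set to highest concentration. GI50 is the concentration that inhibits growth by half. At the TGI there is no net growth.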
# Assays:
# Test in all cases: inhibition of tumour cell growth, NCI panel, 48 h
# IGROV1 ovarian = test system: IGROV1 ovarian
# K-562 leukemia = test system: K-562 leukemia
# NCI-H226 lung = test system: NCI-H226 lung
# NCI/ADR-RES ovarian = test system: NCI/ADR-RES ovarian
# PC-3 prostate = test system: PC-3 prostate
# SF-268 CNS = test system: SF-268 CNS
# SF-539 CNS = test system: SF-539 CNS
# SK-OV-3 ovarian = test system: SK-OV-3 ovarian
# SW-620 colon = test system: SW-620 colon
# UO-31 renal = test system: UO-31 renal
Compound,GI50 (IGROV1 ovarian),TGI (IGROV1 ovarian),GI50 (K-562 leukemia),TGI (K-562 leukemia),GI50 (NCI-H226 lung),TGI (NCI-H226 lung),GI50 (NCI/ADR-RES ovarian),TGI (NCI/ADR-RES ovarian),GI50 (PC-3 prostate),TGI (PC-3 prostate),GI50 (SF-268 CNS),TGI (SF-268 CNS),GI50 (SF-539 CNS),TGI (SF-539 CNS),GI50 (SK-OV-3 ovarian),TGI (SK-OV-3 ovarian),GI50 (SW-620 colon),TGI (SW-620 colon),GI50 (UO-31 renal),TGI (UO-31 renal)
COc1ccc(C2=C(c3ccc(OC)c(OC)c3)C(=O)N3CCCC3C2)cc1 (configuration not stated),13.3 µM,> 100 µM,7.32 µM,> 100 µM,43.9 µM,> 100 µM,39.6 µM,> 100 µM,9.73 µM,> 100 µM,9.44 µM,> 100 µM,12 µM,> 100 µM,30.5 µM,> 100 µM,32.5 µM,> 100 µM,22.8 µM,> 100 µM
CCOC(=O)C1CCCCN1C(=O)c1ccc(Nc2cnc3cc(C(F)(F)F)ccc3n2)cc1 (configuration not stated),19.3 µM,40.8 µM,15.1 µM,> 100 µM,24.5 µM,45.6 µM,14.1 µM,29.2 µM,11.5 µM,26.9 µM,13.2 µM,32.7 µM,15.8 µM,37.1 µM,,,17.8 µM,38.5 µM,14.2 µM,33.2 µM
N#Cc1nc2c(S(=O)(=O)c3ccc(Cl)cc3)c(N)n(CCCN3CCOCC3)c2nc1C#N,,,3 µM,31 µM,2.87 µM,13.5 µM,33.2 µM,> 100 µM,26.7 µM,95.4 µM,5.19 µM,35.4 µM,2.31 µM,7.9 µM,27.1 µM,> 100 µM,2.99 µM,14.1 µM,4.58 µM,> 100 µM
C[C@]12CC[C@@H]3c4ccc(O)cc4CC[C@H]3[C@@H]1Cc1cnc(N)nc12,35.1 µM,> 100 µM,7.97 µM,42.6 µM,15.2 µM,33.8 µM,17.7 µM,41.4 µM,15.7 µM,35.9 µM,13.5 µM,38.8 µM,14.8 µM,30.5 µM,12.8 µM,33.5 µM,22.4 µM,45.9 µM,19 µM,43.7 µM
Cc1ccc(-c2csc(NC(=O)N3CCN(c4cc5c(cc4F)c(=O)c(C(=O)O)cn5C4CC4)CC3)n2)cc1,0.482 µM,> 100 µM,0.881 µM,> 100 µM,1.44 µM,8.85 µM,4.65 µM,> 100 µM,0.454 µM,> 100 µM,0.371 µM,> 100 µM,0.418 µM,> 100 µM,1.35 µM,6.12 µM,1.9 µM,> 100 µM,0.36 µM,> 100 µM
O=C1C(SCCO)=C(SCCO)C(=O)N1c1ccc(-c2ccccc2)cc1,2.02 µM,4.67 µM,> 50 µM,> 100 µM,23.1 µM,> 53.4 µM,3.54 µM,16.2 µM,1.07 µM,7.57 µM,3.1 µM,7.65 µM,1.78 µM,3.92 µM,32.7 µM,> 100 µM,1.45 µM,3.94 µM,1.54 µM,2.97 µM
Nc1ncnc2c1c(-c1ccc(Oc3ccccc3)cc1)nn2C[C@@H]1SSC[C@H]1O,1.34 µM,4.2 µM,0.501 µM,15.5 µM,1.69 µM,4.7 µM,2.96 µM,14 µM,3.23 µM,15.5 µM,0.199 µM,15.1 µM,1.02 µM,8.02 µM,0.92 µM,4.33 µM,17.3 µM,55 µM,1.07 µM,3.55 µM
O=c1c(O)c(-c2ccc(O)c(O)c2)oc2cc(O)cc(O)c12,11.5 µM,> 100 µM,5.2 µM,> 100 µM,16.3 µM,68.5 µM,12.8 µM,63.8 µM,18.7 µM,> 100 µM,10.2 µM,75.5 µM and > 100 µM,6.04 µM,37.2 µM and > 100 µM,18.3 µM,68.5 µM and > 100 µM,26.7 µM,> 100 µM and 59.8 µM,8.48 µM,> 100 µM
CC(=O)[O][Sn]([CH2]c1ccccc1)([CH2]c1ccccc1)[CH2]c1ccccc1,> 10 µM,> 10 µM,3.4 µM,> 4.64 µM,> 10 µM,> 10 µM,> 10 µM,> 10 µM,> 7.52 µM,> 10 µM,,,> 5.42 µM,> 6.76 µM,> 10 µM,> 10 µM,> 8.82 µM,> 10 µM,> 8.79 µM,> 10 µM
O=C1NOC(c2ccc(O)cc2)(c2ccc(O)cc2)c2ccccc21,> 100 µM,> 100 µM,> 100 µM,> 100 µM,> 100 µM,> 100 µM,> 100 µM,> 100 µM,> 100 µM,> 100 µM,> 100 µM,> 100 µM,,,> 100 µM,> 100 µM,> 100 µM,> 100 µM,> 100 µM,> 100 µM
